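A five-concentration, 48-hour dose response in 96-well plates underlies each endpoint, interpolated linearly between surrounding concentrations. GI50 is the concentration that inhibits growth by half.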 Activity calls are given as the source filed them. No stated cut-off is given here; in the data, active = GI50 up to about 1.1 µM and inactive = higher.
Experiments:
Test in all cases: NCI tumour cell line growth inhibition, 48 h
[1] = system: OVCAR-8
[2] = system: HOP-92
[3] = system: A549
[4] = system: UACC-62
[5] = system: SK-MEL-2
[6] = system: SNB-19
[7] = system: NCI-H23
[8] = system: HCT-116
[9] = system: 786-0
[10] = system: LXFL 529
[11] = system: EKVX
[12] = system: RPMI-8226
[13] = system: SN12C
[14] = system: HT-29
[15] = system: SK-OV-3
[16] = system: LOX IMVI
[17] = system: SF-539

Row | SMILES | GI50 [1] | GI50 [2] | GI50 [3] | GI50 [4] | GI50 [5] | GI50 [6] | GI50 [7] | GI50 [8] | GI50 [9] | GI50 [10] | GI50 [11] | GI50 [12] | GI50 [13] | GI50 [14] | GI50 [15] | GI50 [16] | GI50 [17]
1 | COc1cc([C@@H]2c3cc4c(c(O)c3C[C@H]3COC(=O)[C@@H]32)OCO4)cc(OC)c1O | 0.0249 µM (active) | < 0.02 µM (active) | < 0.02 µM (active) | < 0.02 µM (active) | 0.027 µM (active) | 0.796 µM (active) | 0.0853 µM (active) | 0.0205 µM (active) | 0.00596 µM (active) | 0.00257 µM (active) | 0.0351 µM (active) | 0.026 µM (active) | 0.033 µM (active) | 0.577 µM (active) | – | – | –
2 | CN(N=O)C(=O)NC(CCCCNC(=O)OCc1ccccc1)C(=O)OCc1ccccc1 (centres undefined) | 19.2 µM (inactive) | 18.5 µM (inactive) | 83 µM (inactive) | 13.7 µM (inactive) | 30.1 µM (inactive) | > 100 µM (inactive) | 20.7 µM (inactive) | 56.8 µM (inactive) | 17.5 µM (inactive) | 28.5 µM (inactive) | > 100 µM (inactive) | 33.5 µM (inactive) | 17.6 µM (inactive) | 66.4 µM (inactive) | > 100 µM (inactive) | 17.4 µM (inactive) | 17.4 µM (inactive)
3 | CCOC(=O)C(C)c1cc(C2(C)OCCO2)c(C)o1 (centres undefined) | > 100 µM (inactive) | 8.63 µM (inactive) | > 100 µM (inactive) | > 100 µM (inactive) | > 100 µM (inactive) | > 100 µM (inactive) | > 100 µM (inactive) | > 100 µM (inactive) | > 100 µM (inactive) | > 100 µM (inactive) | > 100 µM (inactive) | > 100 µM (inactive) | > 100 µM (inactive) | – | > 100 µM (inactive) | > 100 µM (inactive) | > 100 µM (inactive)
4 | CC1=C(/C=C/C(C)=C/C2CC(N(C)C)=CC(=O)O2)C(C)(C)CCC1 (centres undefined) | 15.5 µM (inactive) | 16.4 µM (inactive) | 9.75 µM (inactive) | 13.6 µM (inactive) | 13.2 µM (inactive) | 15.2 µM (inactive) | 13.5 µM (inactive) | 12.9 µM (inactive) | 15.4 µM (inactive) | 11.7 µM (inactive) | 14.4 µM (inactive) | 1.37 µM (inactive) | 15.5 µM (inactive) | 13.2 µM (inactive) | 16.4 µM (inactive) | 15.2 µM (inactive) | 16.5 µM (inactive)
5 | CCOC(=O)NC(=O)c1cn(CCCCCCCCCCC(=O)NCCCN2CCN(CCCNC(=O)CCCCCCCCCCn3cc(C(=O)NC(=O)OCC)c(=O)[nH]c3=O)CC2)c(=O)[nH]c1=O | > 100 µM (inactive) | > 100 µM (inactive) | > 100 µM (inactive) | > 100 µM (inactive) | > 100 µM (inactive) | > 100 µM (inactive) | > 100 µM (inactive) | > 100 µM (inactive) | > 100 µM (inactive) | > 100 µM (inactive) | – | – | > 100 µM (inactive) | > 100 µM (inactive) | > 100 µM (inactive) | > 100 µM (inactive) | > 100 µM (inactive)
6 | Nc1ccc(/N=N/c2ccc(-c3ccc(/N=N/c4c(S(=O)(=O)O)cc5cc(S(=O)(=O)O)c(/N=N/c6ccc([N+](=O)[O-])cc6)c(N)c5c4O)cc3)cc2)c2cc(S(=O)(=O)O)ccc12 | > 100 µM (inactive) | 97.7 µM (inactive) | > 100 µM (inactive) | > 100 µM (inactive) | > 100 µM (inactive) | > 100 µM (inactive) | > 100 µM (inactive) | > 100 µM (inactive) | > 100 µM (inactive) | > 100 µM (inactive) | > 100 µM (inactive) | > 100 µM (inactive) | > 100 µM (inactive) | > 100 µM (inactive) | > 100 µM (inactive) | > 100 µM (inactive) | > 100 µM (inactive)
7 | CCCCCCCCCCCCOC(=S)NCCCC | 18.7 µM (inactive) | 20 µM (inactive) | – | 16.7 µM (inactive) | 18.7 µM (inactive) | 37.4 µM (inactive) | 23 µM (inactive) | 18.6 µM (inactive) | 24.6 µM (inactive) | 28.1 µM (inactive) | 18.3 µM (inactive) | 15.7 µM (inactive) | 19.9 µM (inactive) | 19 µM (inactive) | 18.7 µM (inactive) | 17 µM (inactive) | 21.3 µM (inactive)
8 | CCOC(=O)N(c1ccccc1)N(CC)C(=O)/C(C)=N/Nc1ccc([N+](=O)[O-])cc1 | 17.4 µM (inactive) | 15.5 µM (inactive) | 16.7 µM (inactive) | 13.6 µM (inactive) | 16 µM (inactive) | 16.2 µM (inactive) | 18 µM (inactive) | 14.1 µM (inactive) | 17.1 µM (inactive) | 16.6 µM (inactive) | 18.6 µM (inactive) | 16.8 µM (inactive) | 17.3 µM (inactive) | 17.1 µM (inactive) | 19.8 µM (inactive) | – | 16.1 µM (inactive)
9 | CCOC(=O)C1=C(C)N(NC(=O)Nc2ccccc2)C(=O)C1=P(c1ccccc1)(c1ccccc1)c1ccccc1 | 40 µM (inactive) | 31 µM (inactive) | 48.9 µM (inactive) | 25.6 µM (inactive) | 22.4 µM (inactive) | > 100 µM (inactive) | 41.6 µM (inactive) | 39.1 µM (inactive) | 63 µM (inactive) | 35.2 µM (inactive) | 54.3 µM (inactive) | 24.2 µM (inactive) | 28.1 µM (inactive) | 52.2 µM (inactive) | > 100 µM (inactive) | 41.2 µM (inactive) | 28.2 µM (inactive)
10 | CNC(=S)/N=C(\N)N(C)C | > 100 µM (inactive) | > 100 µM (inactive) | > 100 µM (inactive) | > 100 µM (inactive) | – | > 100 µM (inactive) | > 10 µM (inactive) | > 100 µM (inactive) | > 100 µM (inactive) | > 100 µM (inactive) | > 100 µM (inactive) | > 100 µM (inactive) | > 100 µM (inactive) | > 100 µM (inactive) | > 100 µM (inactive) | > 100 µM (inactive) | > 100 µM (inactive)
11 | C/C(=N\NC(N)=S)c1ccc(/C(C)=N/NC(N)=S)cc1 | > 100 µM (inactive) | > 100 µM (inactive) | > 100 µM (inactive) | > 100 µM (inactive) | – | > 100 µM (inactive) | > 100 µM (inactive) | > 100 µM (inactive) | > 100 µM (inactive) | > 100 µM (inactive) | > 100 µM (inactive) | > 100 µM (inactive) | > 100 µM (inactive) | > 100 µM (inactive) | > 100 µM (inactive) | > 100 µM (inactive) | > 100 µM (inactive)
12 | C/C=C/C[C@@H](C)[C@@H](O)[C@H]1C(=O)N[C@@H](CC)C(=O)N(C)CC(=O)N(C)[C@@H](CC(C)C)C(=O)N[C@@H](C(C)C)C(=O)N(C)[C@@H](CC(C)C)C(=O)N[C@@H](C)C(=O)N[C@H](C)C(=O)N(C)[C@@H](CC(C)C)C(=O)N(C)[C@@H](CC(C)C)C(=O)N(C)[C@@H](C(C)C)C(=O)N1C [CYCLOSPORINE] | 12.2 µM (inactive) | 4.65 µM (inactive) | 5.25 µM (inactive) | 3.85 µM (inactive) | 3.17 µM (inactive) | 10.5 µM (inactive) | 5.37 µM (inactive) | – | 12.8 µM (inactive) | 6.89 µM (inactive) | 10.4 µM (inactive) | 2.48 µM (inactive) | 3.95 µM (inactive) | 2.29 µM (inactive) | – | 2.43 µM (inactive) | 4.3 µM (inactive)
13 | c1ccc(-c2csc3ncn4cnnc4c23)cc1 | > 100 µM (inactive) | 24.6 µM (inactive) | > 100 µM (inactive) | 53.3 µM (inactive) | 24.8 µM (inactive) | > 100 µM (inactive) | 90.2 µM (inactive) | 91.4 µM (inactive) | 55.7 µM (inactive) | 92.9 µM (inactive) | > 100 µM (inactive) | 59.6 µM (inactive) | 81.7 µM (inactive) | > 100 µM (inactive) | > 100 µM (inactive) | 55.8 µM (inactive) | > 100 µM (inactive)
14 | O=C(/C=C/c1ccc(OCC(=O)N2CCN(c3ccccc3)CC2)cc1)c1ccccc1 | 10.9 µM (inactive) | 29 µM (inactive) | 44.4 µM (inactive) | 17.8 µM (inactive) | > 26.5 µM (inactive) | 20.1 µM (inactive) | 17.8 µM (inactive) | 11.7 µM (inactive) | 14.6 µM (inactive) | 19.9 µM (inactive) | 34.7 µM (inactive) | 3.75 µM (inactive) | 19.7 µM (inactive) | 4.33 µM (inactive) | 38.1 µM (inactive) | 3.68 µM (inactive) | 16.9 µM (inactive)
15 | CCOC(=O)[C@@]1(C)C=C2O[C@@H]3OC4(CCCCC4)O[C@@H]3C2=C2C(O)=CC=C(O)[C@]21C(=O)OC | > 68.1 µM (inactive) | 13.4 µM (inactive) | > 68.1 µM (inactive) | > 68.1 µM (inactive) | > 68.1 µM (inactive) | > 68.1 µM (inactive) | > 68.1 µM (inactive) | > 68.1 µM (inactive) | > 68.1 µM (inactive) | > 68.1 µM (inactive) | > 68.1 µM (inactive) | 38.6 µM (inactive) | > 68.1 µM (inactive) | > 68.1 µM (inactive) | > 68.1 µM (inactive) | > 68.1 µM (inactive) | –
16 | CC(C)C(=O)N1Cc2cc(Cl)cc(Cl)c2OC(=O)c2ccccc21 | 33.7 µM (inactive) | 24.7 µM (inactive) | 31 µM (inactive) | 19.8 µM (inactive) | 21.5 µM (inactive) | 35.2 µM (inactive) | 66.2 µM (inactive) | 38 µM (inactive) | 35 µM (inactive) | 18.3 µM (inactive) | 27.7 µM (inactive) | 25.5 µM (inactive) | 32.7 µM (inactive) | 34 µM (inactive) | 25.9 µM (inactive) | 23.3 µM (inactive) | 18.7 µM (inactive)

Reference: ChEMBL document CHEMBL1201862, “PubChem BioAssay data set” (2004)
